Measured values published in US11918582B2 (RAPT Therapeutics, Inc., priority 2021, dated 2024).
Counter-ions that a name gives are not always drawn.

Target: T1, human HPK1 (MAP4K1) (Homo sapiens, UniProt Q92918)
T1 construct: Recombinant human HPK1 kinase domain was obtained from ThermoFisher (Cat. #PV6357) and SignalChem (Cat. #M23-11G); purchased ThermoFisher; SignalChem PV6357; M23-11G
T1 sequence (Q92918 17-274 limits assumed): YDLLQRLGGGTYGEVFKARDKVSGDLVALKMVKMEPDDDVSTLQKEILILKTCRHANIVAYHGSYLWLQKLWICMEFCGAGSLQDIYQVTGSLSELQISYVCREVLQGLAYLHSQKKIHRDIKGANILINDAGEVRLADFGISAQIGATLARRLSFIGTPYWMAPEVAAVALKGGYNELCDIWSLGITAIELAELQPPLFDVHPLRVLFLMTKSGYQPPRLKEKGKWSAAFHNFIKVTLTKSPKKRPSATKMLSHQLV
Assay: Biochemical assay for activity against HPK1 (ADP-Glo, MBP substrate)
Details: recombinant human HPK1 kinase domain, 1 nM enzyme, ADP-Glo luminescence
How it was run: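 Recombinant human HPK1 kinase domain (1 nM solution) preincubated 15 min at room temperature with compounds in pH 7.5 HEPES buffer with NaCl, TCEP, MgCl2, Tween-20, BSA. MBP substrate with ATP added, reaction run 2 h at room temperature. ADP formation read by ADP-Glo luminescence to give IC50.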

IC50 | SMILES
< 0.1 µM | COc1cc2c(cc1Nc1ncc3cnn(C[C@@H]4CCCN4C(C)=O)c3n1)CN(C)CC2 [Example 110, (S)-1-(2-((6-((6-methoxy-2-methyl-1,2,3,4-tetrahydroisoquinolin-7-yl)amino)-1H-pyrazolo[3,4-d]pyrimidin-1-yl)methyl)pyrrolidin-1-yl)ethan-1-one]
< 0.1 µM | COc1cc2c(cc1Nc1ncc3cnn(C[C@@H]4CCCN4S(C)(=O)=O)c3n1)CN(C)CC2 [Example 111, (S)-6-methoxy-2-methyl-N-(1-((1-(methylsulfonyl)228yrrolidine-2-yl)methyl)-1H-pyrazolo[3,4-d]pyrimidin-6-yl)-1,2,3,4-tetrahydroisoquinolin-7-amine]
< 0.1 µM | CCC(=O)N1CCC[C@H]1Cn1ncc2cnc(Nc3cc4c(cc3OC)CCN(C)C4)nc21 [Example 112, (S)-1-(2-((6-((6-methoxy-2-methyl-1,2,3,4-tetrahydroisoquinolin-7-yl)amino)-1H-pyrazolo[3,4-d]pyrimidin-1-yl)methyl)pyrrolidin-1-yl)propan-1-one trifluoroacetate]
< 0.1 µM | COC(=O)N1CCC[C@H]1Cn1ncc2cnc(Nc3cc4c(cc3OC)CCN(C)C4)nc21 [Example 113, methyl (S)-2-((6-((6-methoxy-2-methyl-1,2,3,4-tetrahydroisoquinolin-7-yl)amino)-1H-pyrazolo[3,4-d]pyrimidin-1-yl)methyl)pyrrolidine-1-carboxylate trifluoroacetate]
< 0.1 µM | COc1cc2c(cc1Nc1ncc3cnn(C[C@@H]4CCCN4C(=O)CO)c3n1)CN(C)CC2 [Example 114, (S)-2-hydroxy-1-(2-((6-((6-methoxy-2-methyl-1,2,3,4-tetrahydroisoquinolin-7-yl)amino)-1H-pyrazolo[3,4-d]pyrimidin-1-yl)methyl)230yrrolidine-1-yl)ethan-1-one 2,2,2-trifluoroacetate]
0.1 to 0.25 µM | COc1cc2c(cc1Nc1ncc3c(C)nn(C[C@@H]4CCCN4C(C)=O)c3n1)CN(C)CC2 [Example 115, (S)-1-(2-((6-((6-methoxy-2-methyl-1,2,3,4-tetrahydroisoquinolin-7-yl)amino)-3-methyl-1H-pyrazolo[3,4-d]pyrimidin-1-yl)methyl)231yrrolidine-1-yl)ethan-1-one]
0.1 to 0.25 µM | COc1cc2c(cc1Nc1ncc3c(C)nn(C[C@@H]4CCCN4S(C)(=O)=O)c3n1)CN(C)CC2 [Example 116, (S)-6-methoxy-2-methyl-N-(3-methyl-1-((1-(methylsulfonyl)pyrrolidin-2-yl)methyl)-1H-pyrazolo[3,4-d]pyrimidin-6-yl)-1,2,3,4-tetrahydroisoquinolin-7-amine]
< 0.1 µM | COc1cc2c(cc1Nc1ncc3cnn(C[C@H]4CCCN4C(C)=O)c3n1)CN(C)CC2 [Example 117, (R)-1-(2-((6-((6-methoxy-2-methyl-1,2,3,4-tetrahydroisoquinolin-7-yl)amino)-1H-pyrazolo[3,4-d]pyrimidin-1-yl)methyl)pyrrolidin-1-yl)ethan-1-one trifluoroacetate]
< 0.1 µM | COc1cc2c(cc1Nc1ncc3cnn(C[C@H]4CCCN4S(C)(=O)=O)c3n1)CN(C)CC2 [Example 118, (R)-6-methoxy-2-methyl-N-(1-((1-(methylsulfonyl)pyrrolidin-2-yl)methyl)-1H-pyrazolo[3,4-d]pyrimidin-6-yl)-1,2,3,4-tetrahydroisoquinolin-7-amine trifluoroacetate]
< 0.1 µM | COc1cc2c(cc1Nc1ncc3cnn(C[C@H]4C[C@@H](NC(C)=O)C4)c3n1)CN(C)CC2 [Example 119, cis N-(3-((6-((6-methoxy-2-methyl-1,2,3,4-tetrahydroisoquinolin-7-yl)amino)-1H-pyrazolo[3,4-d]pyrimidin-1-yl)methyl)cyclobutyl)acetamide]
< 0.1 µM | COc1cc2c(cc1Nc1ncc3cnn(C[C@H]4C[C@@H](NS(C)(=O)=O)C4)c3n1)CN(C)CC2 [Example 120, cis N-(3-((6-((6-methoxy-2-methyl-1,2,3,4-tetrahydroisoquinolin-7-yl)amino)-1H-pyrazolo[3,4-d]pyrimidin-1-yl)methyl)cyclobutyl)methanesulfonamide trifluoroacetate]
< 0.1 µM | COc1cc2c(cc1Nc1ncc3cnn([C@H]4C[C@H](CNS(C)(=O)=O)C4)c3n1)CN(C)CC2 [Example 121, N-((trans-3-(6-((6-methoxy-2-methyl-1,2,3,4-tetrahydroisoquinolin-7-yl)amino)-1H-pyrazolo[3,4-d]pyrimidin-1-yl)cyclobutyl)methyl)methanesulfonamide trifluoroacetate]
< 0.1 µM | COc1cc2c(cc1Nc1ncc3cnn([C@H]4C[C@H](CNC(C)=O)C4)c3n1)CN(C)CC2 [Example 122, N-((trans-3-(6-((6-methoxy-2-methyl-1,2,3,4-tetrahydroisoquinolin-7-yl)amino)-1H-pyrazolo[3,4-d]pyrimidin-1-yl)cyclobutyl)methyl)acetamide 2,2,2-trifluoroacetate]
< 0.1 µM | COc1cc2c(cc1Nc1ncc3cnn([C@H]4C[C@H](CNS(=O)(=O)C5CC5)C4)c3n1)CN(C)CC2 [Example 123, N-[[3-[6-[(6-methoxy-2-methyl-3,4-dihydro-1H-isoquinolin-7-yl)amino]pyrazolo[3,4-d]pyrimidin-1-yl]cyclobutyl]methyl]cyclopropanesulfonamide]
< 0.1 µM | COCCS(=O)(=O)NC[C@H]1C[C@H](n2ncc3cnc(Nc4cc5c(cc4OC)CCN(C)C5)nc32)C1 [Example 124, 2-methoxy-N-(((1r,3r)-3-(6-((6-methoxy-2-methyl-1,2,3,4-tetrahydroisoquinolin-7-yl)amino)-1H-pyrazolo[3,4-d]pyrimidin-1-yl)cyclobutyl)methyl)ethane-1-sulfonamide]
0.1 to 0.25 µM | COc1cc2c(cc1Nc1ncc3cnn([C@H]4C[C@@H](CNS(C)(=O)=O)C4)c3n1)CN(C)CC2 [Example 125, N-((cis-3-(6-((6-methoxy-2-methyl-1,2,3,4-tetrahydroisoquinolin-7-yl)amino)-1H-pyrazolo[3,4-d]pyrimidin-1-yl)cyclobutyl)methyl)methanesulfonamide]
0.1 to 0.25 µM | COc1cc2c(cc1Nc1ncc3cnn([C@H]4C[C@@H](CNC(C)=O)C4)c3n1)CN(C)CC2 [Example 126, N-((cis-3-(6-((6-methoxy-2-methyl-1,2,3,4-tetrahydroisoquinolin-7-yl)amino)-1H-pyrazolo[3,4-d]pyrimidin-1-yl)cyclobutyl)methyl)acetamide]
< 0.1 µM | COc1cc2c(cc1Nc1ncc3cnn(C[C@H]4CN(C(C)=O)CCO4)c3n1)CN(C)CC2 [Example 127, (R)-1-(2-((6-((6-methoxy-2-methyl-1,2,3,4-tetrahydroisoquinolin-7-yl)amino)-1H-pyrazolo[3,4-d]pyrimidin-1-yl)methyl)morpholino)ethan-1-one trifluoroacetate]
< 0.1 µM | COc1cc2c(cc1Nc1ncc3cnn(C[C@H]4CN(S(C)(=O)=O)CCO4)c3n1)CN(C)CC2 [Example 128, (S)-6-methoxy-2-methyl-N-(1-((4-(methylsulfonyl)morpholin-2-yl)methyl)-1H-pyrazolo[3,4-d]pyrimidin-6-yl)-1,2,3,4-tetrahydroisoquinolin-7-amine trifluoroacetate]
